Literature values, collected in US20040265231A1, “Use of antioxidants to mitigate radioimmunotherapy-induced radiation toxicity” (priority 1999, published 2004).

Legend:
[1] = for radioprotective effect (frequency of micronuclei and chromosomal aberration post-radiation): murine study, gamma-ray

| Compound | radioprotective effect against internalized 131I and 125I (dietary and injected) | radioprotective effect against 210Po (alpha emission) (in vivo) | radioprotective effect (frequency of micronuclei and chromosomal aberration post-radiation) [1] | radioprotection against tissue incorporated I5I (in vivo) | radioprotective effect of vitamin alone ([1]; rats and mice) |
| --- | --- | --- | --- | --- | --- |
| O=C1O[C@H]([C@@H](O)CO)C(O)=C1O [vitamin C, L-ascorbic acid] | exhibited radioprotective effects | not against alpha emission from ^210Po | exhibited radioprotective effects | – | – |
| vitamin A | – | not against ^210Po | – | effective radioprotector | – |
| vitamin E | – | – | exhibited radioprotective effects | – | ineffective |
